Values quoted from earlier work, collected in patent publication US6921754B2, “Compositions containing folic acid and reduced folate” (BASF Aktiengesellschaft, priority 2000, dated 2005).

System: neural tube defects (NTDs) in neonates
Conditions: supplementation of pregnant women with 0.4 to 4 mg of folic acid/day (Hages et al., 1996)

Compound: Nc1nc2ncc(CNc3ccc(C(=O)N[C@@H](CCC(=O)O)C(=O)O)cc3)nc2c(=O)[nH]1 [folic acid, N-[4-(2-Amino-3,4-dihydro-4-oxo-6-pteridinylmethylamino)-benzoyl]-L-glutamic acid]
- decrease in the frequency of abnormalities in newborn infants: 50-80%
